# Tests used:
# Assay in all cases: relative viability (nuclei count vs DMSO), 5 days (fraction); higher = more cells survive
# [1] = compound: CC1=CC(=CC=C1)NC2=NC(=CS2)C3=CC=NC=C3 + C[C@@H](Oc1cc(-c2cnn(C3CCNCC3)c2)cnc1N)c1c(Cl)ccc(F)c1Cl [Crizotinib] (partner 1 µM)
# How it was run: (§1)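 Medians of duplicate plates are given as relative viability. That measure is the nuclei count in treated wells divided by the count in vehicle wells. Counts were taken on 4× images of lung cancer cell lines in 1536-well plates, 5 days after pin-tool dosing the day after seeding with one drug alone or a fixed anchor-drug dose plus five library-drug doses (not always all listed) in √10 steps.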
# [2] = compound: CC1=CC(=CC=C1)NC2=NC(=CS2)C3=CC=NC=C3 + Nc1ncn([C@H]2C[C@H](O)[C@@H](CO)O2)c(=O)n1 [Decitabine] (partner 2 µM)
# How it was run: as §1
# Masitinib + Tozasertib = compound: Cc1ccc(NC(=O)c2ccc(CN3CCN(C)CC3)cc2)cc1Nc1nc(-c2cccnc2)cs1 [Masitinib] + Cc1cc(Nc2cc(N3CCN(C)CC3)nc(Sc3ccc(NC(=O)C4CC4)cc3)n2)n[nH]1 [Tozasertib] (partner 0.1 µM)
# How it was run: as §1
# Masitinib + Vorinostat = compound: Cc1ccc(NC(=O)c2ccc(CN3CCN(C)CC3)cc2)cc1Nc1nc(-c2cccnc2)cs1 [Masitinib] + O=C(CCCCCCC(=O)Nc1ccccc1)NO [Vorinostat] (partner 1 µM)
# How it was run: as §1
Cell Line,relative viability ([1]; first compound 0.08 µM),relative viability ([1]; first compound 0.253 µM),relative viability ([1]; first compound 0.8 µM),relative viability ([1]; first compound 2.53 µM),relative viability ([1]; first compound 8 µM),relative viability ([2]; first compound 0.08 µM),relative viability ([2]; first compound 0.253 µM),relative viability ([2]; first compound 0.8 µM),relative viability ([2]; first compound 2.53 µM),relative viability ([2]; first compound 8 µM),relative viability (Masitinib + Tozasertib; first compound 0.01 µM),relative viability (Masitinib + Tozasertib; first compound 0.03162 µM),relative viability (Masitinib + Tozasertib; first compound 0.1 µM),relative viability (Masitinib + Tozasertib; first compound 0.3162 µM),relative viability (Masitinib + Tozasertib; first compound 1 µM),relative viability (Masitinib + Vorinostat; first compound 0.01 µM),relative viability (Masitinib + Vorinostat; first compound 0.03162 µM),relative viability (Masitinib + Vorinostat; first compound 0.1 µM),relative viability (Masitinib + Vorinostat; first compound 0.3162 µM),relative viability (Masitinib + Vorinostat; first compound 1 µM)
HCC-44,0.704,0.585,0.651,0.722,0.691,0.88,0.788,0.834,0.767,0.826,0.865,1.13,0.876,0.799,0.599,0.914,1.1,1.06,1.06,1.03
HCC-827,0.945,0.91,0.854,0.89,0.856,0.298,0.317,0.352,0.287,0.328,0.378,0.444,0.444,0.457,0.514,0.603,0.845,0.712,0.876,0.745
NCI-H1623,–,–,–,–,–,–,–,–,–,–,0.447,0.548,0.477,0.398,0.35,–,–,–,–,–
NCI-H2405,0.684,0.774,0.615,0.874,0.808,0.694,0.678,0.686,–,0.671,0.759,0.729,0.725,0.631,0.635,0.791,0.937,0.858,0.938,0.909
PC-3 [JPC-3],0.875,0.913,0.852,0.904,0.799,0.783,–,0.865,0.72,0.756,0.879,0.782,0.917,0.824,0.878,0.753,0.554,0.779,0.748,0.667
NCI-H1666,0.722,0.567,0.526,0.567,0.386,0.682,0.691,0.67,0.472,0.636,–,0.495,0.586,0.58,0.585,1.08,0.875,1.09,1.02,1.09
HARA,0.804,1,0.994,0.998,0.986,0.508,0.438,0.539,0.48,0.664,–,0.352,0.126,0.0979,0.104,0.498,0.539,0.57,0.521,0.485
NCI-H1651,0.854,0.869,0.897,0.851,0.897,0.558,0.55,0.66,0.475,0.628,0.743,0.68,0.685,0.484,0.583,0.577,0.543,0.56,0.529,0.55
NCI-H1395,–,–,–,–,–,0.666,–,0.685,0.677,0.761,0.713,0.678,0.828,0.782,0.624,0.765,0.613,0.787,0.774,0.637
